According to US20120058133A1, “INHIBITION OF TRNA SYNTHETASES AND THERAPEUTIC APPLICATIONS THEREOF” (President and Fellows of Harvard College, priority 2009, published 2012):
Entries after “also recorded” stand apart in the source; their conditions may differ.

What was measured:
[1] = tested on: primary human memory T cells (CD4+ CD45RO+); assay: IL-17 and IFNγ expression by human memory T cells co-cultured with CD14+ monocytes; type: cell-based; settings: 100 nM HF, 6 days
Method: FIG. 2F is a set of FACS analyses of purified primary human memory T cells (CD4^+ CD45RO^+) activated in co-culture with CD14^+ monocytes and treated with DMSO, 100 nM HF or 100 nM MAZ1310. T cells were expanded for 6 days and intracellular cytokine expression was determined following restimulation with PMA plus ionomycin.
Primary murine T and B cells were purified by cell sorting. CD4^+ CD25^− T cells were positively selected using CD4 dynabeads and detachabeads (Dynal—Oslo, Norway) per manufacturers instructions followed by nTreg depletion using a CD25 microbead kit (Miltenyi biotech—Auburn, Calif.). Naïve (CD4^+ CD62Lhi CD44lo Foxp3gfp- or CD4^+ CD62Lhi CD44lo CD25^−) T cells were purified from Foxp3gfp or Foxp3ko mice, respectively, by FACS sorting. CD8^+ T cells or B cells were isolated from CD4^− fractions using CD8 negative isolation kit (Dynal) or CD43 negative isolation kit (Miltenyi biotech), respectively. Resting human CD4^+ T cells were isolated from PBMC of healthy human donors using Dynal CD4 Positive Isolation Kit (Invitrogen—Carlsbad, Calif.) as previously described (Sundrud et al., Blood 106:3440, 2005). CD4^+ cells were further purified to obtain memory T cells by staining with PE-conjugated anti-human CD45RO-PE antibodies (BD Biosciences), and sorting on a FACSAria cytometer (BD Biosciences). Following purification, cells were greater than 99% CD4^+ CD45RO^+. […]

[2] = tested on: passive EAE in RAG2-deficient mice; assay: Passive EAE (transfer of PLP-reactive T cells); type: in vivo, mouse; settings: 2 μg HF daily i.p.
From the text: The ability of systemic HF treatment to block IL-17 expression and associated autoimmune inflammation in vivo was examined using two distinct models of experimental autoimmune encephalomyelitis (EAE). […] The second model, a passive model of EAE induction, is initiated by the transfer of myelin proteolipid protein (PLP)-reactive T cells into lymphopenic hosts.
Passive EAE was induced by intravenous transfer of purified CD3^+ splenic T cells isolated from PLP TCR transgenic B10.S mice into syngeneic RAG2-deficient mice (3×10^6 cells/mouse) (Waldner et al., J. Clin. Invest. 113(7):990-997, 2004).
Mice were injected daily with HF (2 μg/mouse) or vehicle control (DMSO) i.p. Clinical signs of EAE were assessed according to the following score: 0, no signs of disease; 1, flaccid tail; 2, weak gait/hind limb paresis; 3, hind limb paralysis; 4, tetraplegia; 5, moribund. Cytokine production during EAE was determined either in peripheral T cells isolated from spleen or lymph nodes of mice prior to disease onset (day 6-10) or in mononuclear cells isolated from the brain and spinal cords of mice with severe disease (clinical score ≧2) between days 15-20. Briefly, splenocytes were stained for intracellular cytokines following erythrocyte lysis with ammonium chloride buffer. T cells were isolated from brain and spinal cords of mice with active EAE following perfusion with cold PBS. […]

dermal ECM deposition = settings: Pines et al. 2003; cited from earlier work

O=C(CC1NCCCC1O)Cn1cnc2cc(Br)c(Cl)cc2c1=O (racemic) [HF, halofuginone]
IFNγ expression in human T cells [1]: essentially unaffected
percentage of human T cells expressing IL-17 and amount of IL-17 produced [1]: greatly reduced
disease in passive EAE model [2]: kinetics and severity similar to control treated animals; also recorded: had no effect on an independent, passive model of EAE
dermal ECM deposition (dermal ECM deposition): potently reduces dermal extracellular matrix (ECM) deposition; also recorded: reduces excess dermal ECM deposition
